Measurements: PubChem BioAssay (NCI)
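Cells were grown in 96-well plates and exposed to each compound for 48 hours at five concentrations; endpoints were interpolated linearly between bracketing concentrations, or set to the highest concentration if not reached. GI50: concentration for 50% inhibition of growth. Definition used: TGI = concentration required for complete inhibition of growth.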

Key:
Test in all cases: DTP human tumour cell line panel, 48 h
[1] = tested on: SK-MEL-5 melanoma
[2] = tested on: CAKI-1 renal
[3] = tested on: SK-OV-3 ovarian
[4] = tested on: UACC-62 melanoma
[5] = tested on: HCT-116 colon
[6] = tested on: OVCAR-3 ovarian
[7] = tested on: KM12 colon
[8] = tested on: RXF 393 renal
[9] = tested on: SR leukemia
[10] = tested on: MDA-MB-435

SMILES	GI50 [1]	TGI [1]	GI50 [2]	TGI [2]	GI50 [3]	TGI [3]	GI50 [4]	TGI [4]	GI50 [5]	TGI [5]	GI50 [6]	TGI [6]	GI50 [7]	TGI [7]	GI50 [8]	TGI [8]	TGI [9]	GI50 [10]	TGI [10]	GI50 [9]
CC[O-].CC[O-].O=C1C(c2ccccc2)=C([O-])c2ccccc21.O=C1C(c2ccccc2)=C([O-])c2ccccc21.[Ti+4]	> 100 µM	> 100 µM	> 100 µM	> 100 µM	> 100 µM	> 100 µM	72.6 µM	> 100 µM	> 100 µM	> 100 µM	> 100 µM	> 100 µM	62.9 µM	> 100 µM						
CCC[CH2][Sn]([CH2]CCC)([O]C(=O)C(N)CSC)[O]C(=O)C(N)CSC (stereo not drawn)	11.6 µM	25 µM	5 µM	17.4 µM			10.4 µM	23 µM	11.6 µM	24.7 µM	12.5 µM	25.4 µM	13.3 µM	29.4 µM	6.83 µM	18.8 µM				
O=c1ccnc2c1ccc1[nH]cccc12		> 100 µM				> 100 µM		> 100 µM		> 100 µM		> 100 µM		> 100 µM		> 100 µM	> 100 µM			
Cc1nc2cc(N)c(F)cc2[nH]1		> 100 µM		> 100 µM		> 100 µM		> 100 µM						> 100 µM		> 100 µM	> 100 µM			
O=S(=O)(c1ccc(N=C2NN=C(c3c[nH]c4ccccc34)CS2)cc1)N1CCOCC1	2.51 µM	16.4 µM	78.1 µM	> 100 µM	> 100 µM	> 100 µM	26.8 µM	> 100 µM	7.35 µM	> 100 µM	18.8 µM	> 100 µM	7.13 µM	> 100 µM			> 100 µM	8.85 µM	> 100 µM	4.81 µM
O=C([CH-]C(=O)c1ccccc1)c1ccccc1.O=C([CH-]C(=O)c1ccccc1)c1ccccc1.O=C([CH-]C(=O)c1ccccc1)c1ccccc1.[OH3+].[Y+3]	3.72 µM	13.9 µM	5.68 µM	26.8 µM	11.2 µM	40 µM	5.73 µM	22.3 µM	4.18 µM	18.3 µM	5 µM	17.3 µM	5.38 µM	24 µM						
Cc1ccc(/C=C/C(=O)c2sc(-c3cccnc3)nc2C)cc1		> 100 µM		> 100 µM		> 100 µM		> 100 µM				> 100 µM		> 100 µM		> 100 µM				
NC(=S)N/N=C(\C(=O)Nc1cccc([N+](=O)[O-])c1)c1nc2ccc([N+](=O)[O-])cc2[nH]c1=O		> 100 µM				> 100 µM		> 100 µM		> 100 µM				> 100 µM		> 100 µM				
O=C([O][Hg][CH2]C1COCC([CH2][Hg][O]C(=O)c2ccccc2)O1)c1ccccc1 (stereo not drawn)	11.9 µM	24.6 µM	1.61 µM	3.21 µM	21.8 µM	43 µM	16.4 µM	32.4 µM	1.56 µM	2.93 µM	1.58 µM	2.93 µM	16.6 µM	31.5 µM	1.99 µM	3.56 µM		14.2 µM	30.9 µM	
COC(=O)C12CC3CC(C1)CC(C(=O)OC)(C3)C2		> 100 µM		> 100 µM		> 100 µM		> 100 µM		> 100 µM		> 100 µM		> 100 µM			> 100 µM			
O=C1c2ccccc2C2(O)NC(=S)N(c3ccccc3)C12O (stereo not drawn)				> 100 µM		> 100 µM		> 100 µM		> 100 µM		> 100 µM		> 100 µM			> 100 µM			
Nc1ncn(C2C=C(CO)C(O)C2O)c(=O)n1 (stereo not drawn)		> 100 µM		> 100 µM		> 100 µM		> 100 µM		> 100 µM		> 100 µM		> 100 µM		> 100 µM	> 100 µM			
Cc1cccc(Cl)c1NC(=O)/C=C/c1ccccc1		> 100 µM		> 100 µM		> 100 µM		> 100 µM		> 100 µM		> 100 µM		> 100 µM			> 100 µM		> 100 µM	
COc1cc(C(=O)C/C(CCC(=O)Nc2ccc(Cl)cc2C)=N/NC(=O)C(N)=O)ccc1O		> 100 µM		> 100 µM		> 100 µM		> 100 µM		> 100 µM		> 100 µM		> 100 µM						
C[C@]12CC[C@H](OCCC#N)CC1=CC[C@@H]1C2CC[C@]2(C)/C(=N/OCCC#N)CCC12 (stereo partly drawn)		> 100 µM		> 100 µM		> 100 µM		> 100 µM		> 100 µM		> 100 µM		> 100 µM		> 73.9 µM	> 100 µM			
CC(=O)Nc1c(C)ccc2c1C(=O)c1ccccc1C2=O		> 100 µM		> 100 µM		> 100 µM		> 100 µM		> 100 µM				> 100 µM		> 100 µM	> 100 µM			
CCCCCCCCCCC(O)C1CCC(C(O)CCC(O)C2CCC(CCCCCCC[C@H](O)CC3=C[C@@H](C)OC3=O)O2)O1 (stereo partly drawn)	5.97 µM	> 64.3 µM		> 100 µM		> 66.1 µM	0.466 µM	> 100 µM	3.48 µM	> 53.4 µM		45 µM		68.1 µM		33.9 µM	> 100 µM			
O=C(N/N=C/c1ccccc1Cl)c1ccccc1Nc1ccnc(C(F)(F)F)c1	0.627 µM	2.71 µM	0.389 µM	2.72 µM	1.43 µM	5.31 µM	0.976 µM	3.72 µM	0.637 µM	3.27 µM	0.832 µM	3.68 µM	1.99 µM	6.66 µM	0.174 µM	1.1 µM		1.71 µM	6.81 µM	
